In PMC2878666 (Biochemistry, 2009):

Tests used:
[1] = target: T1, nicotinic acetylcholine receptor (Torpedo nAChR, α2βγδ), α subunit (Tetronarce californica, UniProt P02710+P02712+P02714+P02718); experiment: [3H]PCP radioligand displacement; type: binding
[2] = target: T1, nicotinic acetylcholine receptor (Torpedo nAChR, α2βγδ), α subunit; experiment: [3H]PCP radioligand displacement, centrifugation assay; type: binding

T1 sequence (P02710 25-461): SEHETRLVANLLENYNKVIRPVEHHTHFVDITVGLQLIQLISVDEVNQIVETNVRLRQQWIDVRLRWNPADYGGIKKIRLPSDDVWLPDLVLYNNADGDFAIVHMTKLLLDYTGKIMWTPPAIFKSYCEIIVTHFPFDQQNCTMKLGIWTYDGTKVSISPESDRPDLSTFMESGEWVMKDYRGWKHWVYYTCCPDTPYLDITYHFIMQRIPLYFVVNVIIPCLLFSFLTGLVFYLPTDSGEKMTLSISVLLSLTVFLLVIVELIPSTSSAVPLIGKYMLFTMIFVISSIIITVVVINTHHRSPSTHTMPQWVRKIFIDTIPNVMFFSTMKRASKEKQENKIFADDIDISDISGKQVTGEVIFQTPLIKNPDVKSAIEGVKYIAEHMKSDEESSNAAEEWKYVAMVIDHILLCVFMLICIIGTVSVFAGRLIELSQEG
T1 sequence (P02712 25-493): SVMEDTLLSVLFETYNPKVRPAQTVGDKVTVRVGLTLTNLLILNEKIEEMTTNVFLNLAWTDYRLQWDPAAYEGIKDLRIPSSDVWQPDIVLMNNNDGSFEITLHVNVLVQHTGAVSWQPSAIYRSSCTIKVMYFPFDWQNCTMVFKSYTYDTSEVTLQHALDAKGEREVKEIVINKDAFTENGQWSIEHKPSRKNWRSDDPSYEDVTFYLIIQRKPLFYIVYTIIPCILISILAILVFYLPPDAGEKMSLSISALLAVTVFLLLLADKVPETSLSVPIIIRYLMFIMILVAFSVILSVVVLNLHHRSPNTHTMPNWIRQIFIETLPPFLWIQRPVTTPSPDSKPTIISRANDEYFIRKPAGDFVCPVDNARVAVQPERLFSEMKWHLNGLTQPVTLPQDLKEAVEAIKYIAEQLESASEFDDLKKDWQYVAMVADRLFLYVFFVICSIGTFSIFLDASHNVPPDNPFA
T1 sequence (P02714 18-506): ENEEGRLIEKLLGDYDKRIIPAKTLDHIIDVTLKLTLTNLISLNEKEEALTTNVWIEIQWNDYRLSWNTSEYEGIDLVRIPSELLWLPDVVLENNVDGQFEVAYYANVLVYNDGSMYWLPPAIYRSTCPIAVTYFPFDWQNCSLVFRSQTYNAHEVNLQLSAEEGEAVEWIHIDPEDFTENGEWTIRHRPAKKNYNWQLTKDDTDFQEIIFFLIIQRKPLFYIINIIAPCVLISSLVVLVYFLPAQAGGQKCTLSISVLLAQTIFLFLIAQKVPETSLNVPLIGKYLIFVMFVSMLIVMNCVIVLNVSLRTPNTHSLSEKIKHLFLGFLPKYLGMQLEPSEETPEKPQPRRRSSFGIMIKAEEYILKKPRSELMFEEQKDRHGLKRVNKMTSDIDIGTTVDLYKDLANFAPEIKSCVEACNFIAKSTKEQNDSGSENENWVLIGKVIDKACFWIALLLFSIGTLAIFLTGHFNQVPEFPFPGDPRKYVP
T1 sequence (P02718 22-522): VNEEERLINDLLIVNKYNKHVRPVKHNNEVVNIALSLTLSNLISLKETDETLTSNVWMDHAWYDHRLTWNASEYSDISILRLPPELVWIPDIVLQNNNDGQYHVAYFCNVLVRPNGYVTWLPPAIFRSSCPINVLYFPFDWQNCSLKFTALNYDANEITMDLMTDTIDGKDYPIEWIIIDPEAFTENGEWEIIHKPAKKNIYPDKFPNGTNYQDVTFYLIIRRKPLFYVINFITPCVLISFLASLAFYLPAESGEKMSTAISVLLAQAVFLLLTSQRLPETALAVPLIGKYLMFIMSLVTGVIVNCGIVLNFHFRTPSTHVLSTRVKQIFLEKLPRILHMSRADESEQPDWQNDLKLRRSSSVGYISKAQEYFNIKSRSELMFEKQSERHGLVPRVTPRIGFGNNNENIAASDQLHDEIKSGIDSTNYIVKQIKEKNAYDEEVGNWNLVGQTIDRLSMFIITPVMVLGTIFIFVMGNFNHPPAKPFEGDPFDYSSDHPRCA

Row | Structure (SMILES) | IC50 [1] | IC50 [2]
1 | CN(C)CCCN1c2ccccc2Sc2ccc(Cl)cc21 [CPZ, chlorpromazine] | 2.3 ± 0.4 µM | 
2 | CN(C)CCCN1c2ccccc2Sc2ccccc21 [promazine] |  | 3.5 ± 0.2 µM
3 | CN(C)CCCN1c2ccccc2[S+]([O-])c2ccc(Cl)cc21 (stereo not drawn) [CPZsulfoxide, chlorpromazine sulfoxide] |  | 69 ± 6 µM
